Test results from patent publication US8592603B2, “Synthesis of 2-(4-aminophenyl) benzothiazole derivatives and use thereof” (Kaohsiung Medical University, priority 2011, dated 2013).

Key:
Assay type in all cases: cell-based, human
caspase-3 = assay: Caspase-3 colorimetric assay; settings: BCC cells, 6f-UVA treatment, compared with untreated control, p<0.01 (FIG. 4A)
Experimental: (A) The increased enzymatic activities of the caspase-3 in apoptotic were determined by colorimetric reaction. The cleavage of peptide by the caspase releases the chromophore pNA (p-nitroaniline), which can be quantified spectrophotometrically at a wavelength of 405 nm. (B) Dot plots for BCC cells treated with various concentrations of 6f-UVA and then stained with PI and an annexin V-FITC conjugate specifically detecting the exposure of PS residues at the cell surface. (C) Morphological observation and annexin V/PI double stain were used for the detection of fibroblasts apoptosis. Approximately 10000 cells from each group were analyzed by flow cytometry. Data shown are of a representative experiment repeated three times with similar results. ** p<0.01 as compared with the control.
Twenty-four hours after irradiation, cells were collected by centrifugation, washed once with PBS, and cell pellets were counted and resuspended in 25 μL/1×10^6 cells of cold lysis buffer and homogenized. Homogenates were centrifuged at 12,000 rpm for 10 min at 4° C., supernatants were used for measuring caspase-3 activity using an ELISA-based assay, according to the manufacturer's instructions. (R&D Systems, Minneapolis, Minn.). The results were presented as mean±SD.

ERK = assay: Western blot analysis of MAPK phosphorylation: ERK; settings: BCC cells, 6f-UVA at 4 μM, compared with untreated control (FIG. 6A)
Experimental: (§1) (A) After exposure to different concentration of 6f-UVA, cell lysates were collected and immunoblotted with specific antibodies as indicated. For the internal control, the same amounts of protein extract were also probed with antibody against actin. (B) As a control, the expression level of p-ERK was determined in the presence of oligomycin (25 μM) and ATP (1×10^−4M)
Total cell extracts from cultured BCC cells were obtained by lysing the cells in ice-cold RIPA buffer (1×PBS, 1% NP-40, 0.5% sodium deoxycholate, 0.1% SDS) containing 100 μg/mL PMSF, 2 μg/mL aprotinin, 2 μg/mL leupeptin and 100 μg/mL NaF. After centrifugation at 14,000 g for 30 min, protein in the supernatants was quantified by Bradford method (Bio-Rad). Forty micrograms of protein per lane was applied in 10% SDS-poly-acrylamide gel. After electrophoresis, protein was transferred from the gel to polyvinylidene difluoride (PVDF) membrane (Millipore, Bedford, Mass.). The membranes were blocked at room temperature for 1 h in PBS+0.1% Tween 20 (PBS-T) containing 5% skim milk. After being briefly rinsed with PBS-T, the blots were probed with respective primary antibodies at room temperature for 2 h or at 4° C. overnight. Rabbit polyclonal antibodies against JNK (46 kDa), p38 (38 kDa), ERK (42, 44 kDa), and mouse monoclonal antibody against p-JNK, p-p38, p-ERK were purchased from Santa Cruz Biotechnology (Santa Cruz, Calif.). Mouse monoclonal antibody against actin was purchased from Chemicon Int. Inc. (Temecula, Calif.). For the blocking test, 25 μM oligomycin (Sigma, a mitochondria-specific F0F1 ATP synthase inhibitor) or 1×10^−4M ATP (Sigma) was added to the media 30 min before treated with 6f-UVA, respectively. The membrane was incubated with the corresponding horseradish peroxidase-labeled secondary antibody (Santa Cruz Biotechnology) at room temperature for 1 h. […] The relative amounts of specific proteins were quantified by densitometry scanning of X-ray films and analyzed by Eagle Eye Image System (Stratagene, La Jolla, Calif.)

p38 = assay: Western blot analysis of MAPK phosphorylation: p38; settings: BCC cells, 6f-UVA at 4 μM, compared with untreated control (FIG. 6A)
Experimental: as §1
Total cell extracts from cultured BCC cells were obtained by lysing the cells in ice-cold RIPA buffer (1×PBS, 1% NP-40, 0.5% sodium deoxycholate, 0.1% SDS) containing 100 μg/mL PMSF, 2 μg/mL aprotinin, 2 μg/mL leupeptin and 100 μg/mL NaF. After centrifugation at 14,000 g for 30 min, protein in the supernatants was quantified by Bradford method (Bio-Rad). Forty micrograms of protein per lane was applied in 10% SDS-poly-acrylamide gel. After electrophoresis, protein was transferred from the gel to polyvinylidene difluoride (PVDF) membrane (Millipore, Bedford, Mass.). The membranes were blocked at room temperature for 1 h in PBS+0.1% Tween 20 (PBS-T) containing 5% skim milk. After being briefly rinsed with PBS-T, the blots were probed with respective primary antibodies at room temperature for 2 h or at 4° C. overnight. […] The relative amounts of specific proteins were quantified by densitometry scanning of X-ray films and analyzed by Eagle Eye Image System (Stratagene, La Jolla, Calif.)

BCC cells = assay: Sub-G1 region analysis (PI, flow cytometry); settings: 4 μM for 4 hours, 1 J/cm^2 UVA, 24 h after irradiation
Experimental: BCC cells were treated with compounds at 4 μM and 1 J/cm^2 UVA. Twenty-four hours after irradiation, cells were harvested by trypsinization and centrifugation. Cell pellets were resuspended in 50% cold ethanol and fixed at −20° C. After fixation, cells were washed once with cold PBS and incubated in 0.5 mL of PBS containing 100 μg/mL RNase A for 20 min at 37° C. Cells were harvested by centrifugation at 400 g for 5 min, and 250 μL of PBS containing 50 μg/mL propidium iodide (PI) was added to the pellet. Thirty minutes later, the DNA contents of 10,000 events were measured by FACSscan flow cytometer (Elite ESP, Beckman Coulter, Brea, Calif.). Histograms were analyzed using Windows Multiple Document Interface software (WinMDI). Cells with DNA content less than that in untreated cells in G0/G1 were considered apoptotic. To investigate the effects of compounds 6 on cell cycle progression of BCC cells, the DNA content of cell nuclei was measured by flow cytometric analysis. […] BCC cells were treated with 4 μM agents for 4 hours followed by 1 J/cm^2 UVA irradiation. Twenty-four hours after irradiation, the PI reagent was used. Approximately 10000 cells from each group were analyzed with the FACScan flow cytometer. The apoptotic effects in 2.2% (control), 6.5% (6a), 13.4% (6b), 29.2% (6c), 24.4% (6d), 6.5% (6e), 35.4% (6f), 13.6% (6g), 13.8% (6h), 14.8% (6i) and 6.4% (6j) of sub-G1 DNA peak were obtained (% represented the percentage of cell counts).

Nc1ccc(-c2nc3ccc(C(F)(F)F)cc3s2)cc1 [Formula 6f, 2-(4-Aminophenyl)-6-trifluoromethylbenzothiazole]
caspase-3 activity (caspase-3): increased | phosphorylation of ERK (p-ERK) (ERK): increased | phosphorylation of p38 (p-p38) (p38): increased | sub-G1 DNA peak (apoptotic effects, percentage of cell counts) (BCC cells): 35.4%
